Experimental data published in publication PMC11345841, “Exploring 2-Sulfonylpyrimidine Warheads as Acrylamide Surrogates for Targeted Covalent Inhibition: A BTK Story” (Journal of Medicinal Chemistry, 2024).
Read-outs that look alike come from different tables or passages of the source. One block for each compound: values may come before it.

How the values were obtained:
[1] = biological target: T1, ABL1(M351T)-phosphorylated (Homo sapiens, UniProt P00519, M351T); assay: KINOMEscan ScanTK; type: binding
T1 construct: purchased Eurofins DiscoverX KINOMEscan (scanTK)

[2] = biological target: T2, ABL1(Q252H)-phosphorylated (Homo sapiens, UniProt P00519, Q252H); assay: KINOMEscan ScanTK; type: binding; conditions: for difference in %Control versus reference Ib at 1 µM: read-out: % difference (compound - Ib %Control)
T2 construct: purchased Eurofins DiscoverX KINOMEscan (scanTK)

[3] = biological target: T3, ABL1(T315I)-phosphorylated (Homo sapiens, UniProt P00519, T315I); assay: KINOMEscan ScanTK; type: binding
T3 construct: purchased Eurofins DiscoverX KINOMEscan (scanTK)

[4] = biological target: T4, ABL1(Y253F)-phosphorylated (Homo sapiens, UniProt P00519, Y253F); assay: KINOMEscan ScanTK; type: binding
T4 construct: purchased Eurofins DiscoverX KINOMEscan (scanTK)

[5] = biological target: T5, AXL (Homo sapiens, UniProt P30530); assay: KINOMEscan ScanTK; type: binding
T5 construct: purchased Eurofins DiscoverX KINOMEscan (scanTK)
T5 sequence (P30530 26-894): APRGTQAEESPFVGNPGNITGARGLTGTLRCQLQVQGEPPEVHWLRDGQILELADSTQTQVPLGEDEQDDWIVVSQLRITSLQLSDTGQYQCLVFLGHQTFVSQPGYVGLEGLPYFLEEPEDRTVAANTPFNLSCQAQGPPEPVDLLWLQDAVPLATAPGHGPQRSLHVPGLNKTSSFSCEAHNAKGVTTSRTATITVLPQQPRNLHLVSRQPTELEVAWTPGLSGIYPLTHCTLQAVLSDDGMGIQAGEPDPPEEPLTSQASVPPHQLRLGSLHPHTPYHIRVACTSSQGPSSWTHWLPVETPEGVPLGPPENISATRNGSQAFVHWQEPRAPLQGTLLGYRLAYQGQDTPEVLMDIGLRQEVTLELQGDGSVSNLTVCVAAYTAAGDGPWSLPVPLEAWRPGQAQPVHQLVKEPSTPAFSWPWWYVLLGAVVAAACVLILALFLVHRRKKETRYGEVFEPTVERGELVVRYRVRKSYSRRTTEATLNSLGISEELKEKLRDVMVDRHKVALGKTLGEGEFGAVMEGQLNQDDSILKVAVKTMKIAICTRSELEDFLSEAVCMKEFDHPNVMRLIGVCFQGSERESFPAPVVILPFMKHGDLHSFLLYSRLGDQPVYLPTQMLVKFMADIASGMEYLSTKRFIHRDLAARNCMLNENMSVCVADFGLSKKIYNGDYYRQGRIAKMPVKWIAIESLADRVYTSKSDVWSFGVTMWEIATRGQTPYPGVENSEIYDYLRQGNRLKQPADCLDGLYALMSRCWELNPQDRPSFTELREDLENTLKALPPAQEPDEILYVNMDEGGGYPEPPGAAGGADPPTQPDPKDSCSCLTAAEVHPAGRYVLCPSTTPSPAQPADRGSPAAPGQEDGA

[6] = biological target: T6, BLK (Homo sapiens, UniProt P51451); assay: KINOMEscan ScanTK; type: binding; conditions: BLK; for difference in %Control vs reference Ib at 1 µM: read-out: % difference (compound - Ib %Control)
T6 construct: purchased Eurofins DiscoverX KINOMEscan (scanTK)

[7] = biological target: T7, EGFR(L861Q) (Homo sapiens, UniProt P00533, L861Q); assay: KINOMEscan ScanTK; type: binding
T7 construct: purchased Eurofins DiscoverX KINOMEscan (scanTK)

[8] = biological target: T8, ERBB3 (Homo sapiens, UniProt P21860); assay: KINOMEscan ScanTK; type: binding; conditions: ERBB3
T8 construct: purchased Eurofins DiscoverX KINOMEscan (scanTK)

[9] = biological target: T9, FGFR2 (Homo sapiens, UniProt P21802); assay: KINOMEscan ScanTK; type: binding
T9 construct: purchased Eurofins DiscoverX KINOMEscan (scanTK)

[10] = biological target: T10, FRK (Homo sapiens, UniProt P42685); assay: KINOMEscan ScanTK; type: binding
T10 construct: purchased Eurofins DiscoverX KINOMEscan (scanTK)

[11] = biological target: T11, FYN (Homo sapiens, UniProt P06241); assay: KINOMEscan ScanTK; type: binding
T11 construct: purchased Eurofins DiscoverX KINOMEscan (scanTK)

[12] = biological target: T12, KIT(A829P) (Homo sapiens, UniProt P10721, A829P); assay: KINOMEscan ScanTK; type: binding
T12 construct: purchased Eurofins DiscoverX KINOMEscan (scanTK)

[13] = biological target: T13, KIT(V559D,V654A) (Homo sapiens, UniProt P10721, V559D/V654A); assay: KINOMEscan ScanTK; type: binding
T13 construct: purchased Eurofins DiscoverX KINOMEscan (scanTK)

[14] = biological target: T14, RET(M918T) (Homo sapiens, UniProt P07949, M918T); assay: KINOMEscan ScanTK; type: binding
T14 construct: purchased Eurofins DiscoverX KINOMEscan (scanTK)

[15] = biological target: T15, VEGFR2 (Homo sapiens, UniProt P35968); assay: KINOMEscan ScanTK; type: binding
T15 construct: purchased Eurofins DiscoverX KINOMEscan (scanTK)

[16] = test system: TMD8 cells; assay: RNA-seq gene expression; conditions: TMD8, 1 μM, 8 h; for number of genes reduced vs DMSO: FDR < 0.01, log2FC < -0.5; for number of genes increased vs DMSO: FDR < 0.01, log2FC > 0.5
[17] = biological target: wild-type BTK (Homo sapiens, UniProt Q06187); assay: NanoBRET target engagement assay in HEK293 cells

T9 sequence (P21802 22-821): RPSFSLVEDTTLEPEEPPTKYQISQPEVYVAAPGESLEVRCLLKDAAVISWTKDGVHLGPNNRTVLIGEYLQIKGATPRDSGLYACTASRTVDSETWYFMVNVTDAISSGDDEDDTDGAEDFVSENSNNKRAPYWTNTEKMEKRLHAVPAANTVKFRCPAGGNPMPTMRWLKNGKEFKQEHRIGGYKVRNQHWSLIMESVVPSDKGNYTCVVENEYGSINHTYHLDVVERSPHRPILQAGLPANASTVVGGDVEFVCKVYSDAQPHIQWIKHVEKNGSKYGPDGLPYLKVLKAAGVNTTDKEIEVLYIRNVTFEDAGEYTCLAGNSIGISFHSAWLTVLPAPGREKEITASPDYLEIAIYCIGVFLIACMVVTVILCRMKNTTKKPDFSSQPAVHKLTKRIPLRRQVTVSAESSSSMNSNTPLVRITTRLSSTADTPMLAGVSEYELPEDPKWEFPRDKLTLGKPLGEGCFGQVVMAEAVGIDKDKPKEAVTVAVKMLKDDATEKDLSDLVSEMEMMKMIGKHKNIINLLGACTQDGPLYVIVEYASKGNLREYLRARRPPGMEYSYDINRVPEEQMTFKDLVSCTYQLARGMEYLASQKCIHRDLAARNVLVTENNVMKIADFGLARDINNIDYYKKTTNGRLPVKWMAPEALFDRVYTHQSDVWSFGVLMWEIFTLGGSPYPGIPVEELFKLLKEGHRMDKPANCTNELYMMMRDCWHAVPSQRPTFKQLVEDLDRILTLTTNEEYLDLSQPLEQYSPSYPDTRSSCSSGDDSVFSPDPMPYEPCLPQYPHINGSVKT
T12 sequence (P10721 26-976 A829P): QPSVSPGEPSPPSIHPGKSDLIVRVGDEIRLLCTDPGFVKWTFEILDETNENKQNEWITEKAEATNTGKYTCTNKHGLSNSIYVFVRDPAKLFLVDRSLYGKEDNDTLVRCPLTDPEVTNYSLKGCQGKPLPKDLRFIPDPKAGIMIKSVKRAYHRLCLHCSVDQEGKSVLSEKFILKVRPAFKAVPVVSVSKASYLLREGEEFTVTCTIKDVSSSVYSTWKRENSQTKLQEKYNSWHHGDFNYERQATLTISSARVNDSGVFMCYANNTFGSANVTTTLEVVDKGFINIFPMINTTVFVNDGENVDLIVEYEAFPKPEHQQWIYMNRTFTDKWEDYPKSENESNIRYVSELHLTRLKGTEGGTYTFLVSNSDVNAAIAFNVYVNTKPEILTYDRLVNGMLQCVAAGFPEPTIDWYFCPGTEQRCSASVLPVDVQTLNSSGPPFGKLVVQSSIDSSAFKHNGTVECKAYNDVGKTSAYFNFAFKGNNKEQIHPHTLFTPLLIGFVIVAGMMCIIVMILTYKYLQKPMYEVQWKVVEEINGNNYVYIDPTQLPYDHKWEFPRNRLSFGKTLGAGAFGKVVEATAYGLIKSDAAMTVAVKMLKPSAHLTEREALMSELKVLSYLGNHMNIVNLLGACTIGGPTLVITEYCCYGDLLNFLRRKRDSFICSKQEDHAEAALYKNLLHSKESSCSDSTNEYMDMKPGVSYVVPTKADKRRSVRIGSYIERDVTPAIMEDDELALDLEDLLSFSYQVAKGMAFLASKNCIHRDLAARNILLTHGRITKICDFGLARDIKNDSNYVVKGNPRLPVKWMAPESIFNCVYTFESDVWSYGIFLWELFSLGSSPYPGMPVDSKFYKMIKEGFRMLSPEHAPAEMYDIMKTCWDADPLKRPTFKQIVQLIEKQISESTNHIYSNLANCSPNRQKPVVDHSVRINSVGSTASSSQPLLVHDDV
T8 sequence (P21860 20-1342): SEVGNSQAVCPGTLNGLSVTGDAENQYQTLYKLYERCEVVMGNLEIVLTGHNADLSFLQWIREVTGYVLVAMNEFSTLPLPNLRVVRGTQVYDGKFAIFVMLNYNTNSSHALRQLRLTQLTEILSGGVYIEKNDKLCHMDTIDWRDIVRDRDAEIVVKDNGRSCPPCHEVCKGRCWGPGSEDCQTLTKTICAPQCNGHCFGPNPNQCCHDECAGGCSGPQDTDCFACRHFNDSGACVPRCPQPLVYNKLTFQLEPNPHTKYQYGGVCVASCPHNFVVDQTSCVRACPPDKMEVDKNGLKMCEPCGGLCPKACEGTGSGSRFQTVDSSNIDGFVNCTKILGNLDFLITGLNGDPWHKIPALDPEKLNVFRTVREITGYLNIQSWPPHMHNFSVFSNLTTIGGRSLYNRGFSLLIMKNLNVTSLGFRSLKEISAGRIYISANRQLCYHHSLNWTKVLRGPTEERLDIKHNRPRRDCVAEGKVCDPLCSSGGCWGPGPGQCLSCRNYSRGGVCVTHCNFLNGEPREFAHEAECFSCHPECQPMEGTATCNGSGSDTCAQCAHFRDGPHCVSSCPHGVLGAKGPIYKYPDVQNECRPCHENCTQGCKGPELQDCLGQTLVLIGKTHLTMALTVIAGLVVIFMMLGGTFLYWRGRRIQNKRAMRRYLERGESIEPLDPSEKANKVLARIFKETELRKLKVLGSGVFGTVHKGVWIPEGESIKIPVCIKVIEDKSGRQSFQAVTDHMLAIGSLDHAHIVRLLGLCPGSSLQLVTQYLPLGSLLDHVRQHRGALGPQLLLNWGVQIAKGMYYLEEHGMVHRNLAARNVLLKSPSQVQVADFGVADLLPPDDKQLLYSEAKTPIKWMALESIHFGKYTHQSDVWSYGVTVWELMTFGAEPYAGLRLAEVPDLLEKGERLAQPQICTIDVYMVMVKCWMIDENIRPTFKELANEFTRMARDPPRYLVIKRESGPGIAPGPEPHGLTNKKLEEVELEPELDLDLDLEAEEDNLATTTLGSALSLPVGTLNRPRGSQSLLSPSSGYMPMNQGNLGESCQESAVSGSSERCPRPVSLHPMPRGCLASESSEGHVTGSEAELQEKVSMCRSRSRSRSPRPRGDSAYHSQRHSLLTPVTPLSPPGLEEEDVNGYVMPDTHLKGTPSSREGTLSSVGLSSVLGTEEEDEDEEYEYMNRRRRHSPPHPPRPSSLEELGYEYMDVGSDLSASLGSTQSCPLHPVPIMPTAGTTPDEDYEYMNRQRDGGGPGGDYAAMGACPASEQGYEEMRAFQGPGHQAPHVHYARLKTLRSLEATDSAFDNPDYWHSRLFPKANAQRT
T13 sequence (P10721 26-976 V559D/V654A): as the sequence (P10721 26-976 A829P) above, with V534D, V629A, P804A counted along it
T14 sequence (P07949 29-1114 M918T): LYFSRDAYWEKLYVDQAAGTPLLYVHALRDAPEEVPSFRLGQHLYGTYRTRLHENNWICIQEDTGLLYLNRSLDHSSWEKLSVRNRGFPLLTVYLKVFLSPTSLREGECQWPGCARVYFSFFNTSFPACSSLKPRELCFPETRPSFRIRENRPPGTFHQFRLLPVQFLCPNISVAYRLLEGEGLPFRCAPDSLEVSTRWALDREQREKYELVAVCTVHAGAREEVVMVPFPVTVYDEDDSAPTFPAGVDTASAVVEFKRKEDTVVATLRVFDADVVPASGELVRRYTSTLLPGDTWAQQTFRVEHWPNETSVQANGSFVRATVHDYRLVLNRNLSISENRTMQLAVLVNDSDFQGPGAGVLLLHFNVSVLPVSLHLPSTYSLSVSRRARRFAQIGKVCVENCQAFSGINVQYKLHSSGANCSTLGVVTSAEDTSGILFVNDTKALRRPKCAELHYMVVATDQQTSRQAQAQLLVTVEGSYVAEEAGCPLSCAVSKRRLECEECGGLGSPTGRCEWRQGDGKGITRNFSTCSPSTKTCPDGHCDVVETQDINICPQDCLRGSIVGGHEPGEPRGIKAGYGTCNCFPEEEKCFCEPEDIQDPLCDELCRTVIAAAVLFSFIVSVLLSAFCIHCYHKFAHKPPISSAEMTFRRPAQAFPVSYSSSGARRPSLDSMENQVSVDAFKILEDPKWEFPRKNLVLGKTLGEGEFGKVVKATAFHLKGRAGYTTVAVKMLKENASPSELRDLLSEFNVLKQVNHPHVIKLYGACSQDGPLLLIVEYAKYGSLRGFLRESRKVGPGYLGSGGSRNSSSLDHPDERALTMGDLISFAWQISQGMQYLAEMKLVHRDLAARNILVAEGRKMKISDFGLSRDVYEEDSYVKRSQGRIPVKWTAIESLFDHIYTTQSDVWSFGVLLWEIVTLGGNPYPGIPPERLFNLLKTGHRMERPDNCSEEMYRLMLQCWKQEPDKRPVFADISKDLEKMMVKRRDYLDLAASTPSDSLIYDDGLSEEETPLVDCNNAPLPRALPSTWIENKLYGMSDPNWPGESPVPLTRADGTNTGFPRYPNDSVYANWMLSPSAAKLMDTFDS
T6 sequence (P51451 whole entry): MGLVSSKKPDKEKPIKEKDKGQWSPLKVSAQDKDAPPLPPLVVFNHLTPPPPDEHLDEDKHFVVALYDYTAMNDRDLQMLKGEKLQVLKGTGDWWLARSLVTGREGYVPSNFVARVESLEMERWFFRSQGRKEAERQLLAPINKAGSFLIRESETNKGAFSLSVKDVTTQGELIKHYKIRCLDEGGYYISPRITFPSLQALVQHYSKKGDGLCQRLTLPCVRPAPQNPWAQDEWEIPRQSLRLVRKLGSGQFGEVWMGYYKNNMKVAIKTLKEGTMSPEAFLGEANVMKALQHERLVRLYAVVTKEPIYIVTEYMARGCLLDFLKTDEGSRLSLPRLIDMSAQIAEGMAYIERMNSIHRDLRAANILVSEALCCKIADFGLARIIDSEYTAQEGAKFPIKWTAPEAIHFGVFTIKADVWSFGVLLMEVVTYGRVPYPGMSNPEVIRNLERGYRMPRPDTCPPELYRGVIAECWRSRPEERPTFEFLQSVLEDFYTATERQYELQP

difference in %Control from compound Ib at 1 µM ([1]; @1000nM): 12%
remaining binding at 1 µM ([1]; @1000nM, read-out: %Control): 77%
remaining binding at 1 µM ([1]; read-out: %Control @1000nM): 77%
difference in %Control versus reference Ib at 1 µM ([2]; @1000nM): -2%
remaining binding at 1 µM ([2]; @1000nM, read-out: %Control): 92%
remaining binding at 1 µM ([2]; read-out: %Control @1000nM): 92%
difference in %Control versus compound Ib at 1 µM ([3]; @1000nM): -7%
remaining binding at 1 µM ([3]; @1000nM, read-out: %Control): 72%
remaining binding at 1 µM ([3]; read-out: %Control @1000nM): 72%
difference in %Control from compound Ib at 1 µM ([4]; @1000nM): 4%
remaining binding at 1 µM ([4]; @1000nM, read-out: %Control): 81%
remaining binding at 1 µM ([4]; read-out: %Control @1000nM): 81%
difference in %Control versus compound Ib at 1 µM ([5]; @1000nM): 25%
remaining binding at 1 µM ([5]; @1000nM, read-out: %Control): 100%
remaining binding at 1 µM ([5]; read-out: %Control @1000nM): 100%
difference in %Control vs reference Ib at 1 µM ([6]; @1000nM): 0.15%
remaining binding at 1 µM ([6]; @1000nM, read-out: %Control): 0.2%
remaining binding at 1 µM ([6]; read-out: %Control @1000nM): 0.2%
difference in % of control versus compound Ib at 1 µM ([7]; @1000nM): 81.2%
remaining binding at 1 µM ([7]; @1000nM, read-out: %Control): 82%
remaining binding at 1 µM ([7]; read-out: %Control @1000nM): 82%
% of control difference from compound Ib at 1 µM ([8]; @1000nM): 39%
remaining binding at 1 µM ([8]; @1000nM, read-out: %Control): 39%
remaining binding at 1 µM ([8]; read-out: %Control @1000nM): 39%
difference in %Control vs compound Ib at 1 µM ([9]; @1000nM): 41%
remaining binding at 1 µM ([9]; @1000nM, read-out: %Control): 80%
remaining binding at 1 µM ([9]; read-out: %Control @1000nM): 80%
difference in %Control versus compound Ib at 1 µM ([10]; @1000nM): 66.7%
remaining binding at 1 µM ([10]; @1000nM, read-out: %Control): 76%
remaining binding at 1 µM ([10]; read-out: %Control @1000nM): 76%
difference in % of control versus compound Ib at 1 µM ([11]; @1000nM): 30.4%
remaining binding at 1 µM ([11]; @1000nM, read-out: %Control): 40%
remaining binding at 1 µM ([11]; read-out: %Control @1000nM): 40%
remaining binding at 1 µM ([12]; @1000nM, read-out: %Control): 73%
remaining binding at 1 µM ([12]; read-out: %Control @1000nM): 73%
remaining binding at 1 µM ([13]; @1000nM, read-out: %Control): 97%
remaining binding at 1 µM ([13]; read-out: %Control @1000nM): 97%
remaining binding at 1 µM ([14]; @1000nM, read-out: %Control): 87%
remaining binding at 1 µM ([14]; read-out: %Control @1000nM): 87%
remaining binding at 1 µM ([15]; @1000nM, read-out: %Control): 94%
remaining binding at 1 µM ([15]; read-out: %Control @1000nM): 94%
Structure (SMILES): CCOC(=O)c1cnc(S(C)(=O)=O)nc1N1CCC[C@@H](n2nc(-c3ccc(Oc4ccccc4)cc3)c3c(N)ncnc32)C1 [Compound 8c, Ethyl (R)-4-(3-(4-Amino-3-(4-phenoxyphenyl)-1H-pyrazolo[3,4-d]pyrimidin-1-yl)piperidin-1-yl)-2-(methylsulfonyl)pyrimidine-5-carboxylate]
number of genes unchanged vs DMSO [16]: 15047 genes
number of genes reduced vs DMSO [16]: 0 genes
number of genes increased vs DMSO [16]: 0 genes

difference in %Control from compound Ib at 1 µM ([1]; @1000nM): 0%
remaining binding at 1 µM ([1]; @1000nM, read-out: %Control): 65%
remaining binding at 1 µM ([1]; read-out: %Control @1000nM): 65%
difference in %Control versus reference Ib at 1 µM ([2]; @1000nM): 4%
remaining binding at 1 µM ([2]; @1000nM, read-out: %Control): 98%
remaining binding at 1 µM ([2]; read-out: %Control @1000nM): 98%
difference in %Control versus compound Ib at 1 µM ([3]; @1000nM): -9%
remaining binding at 1 µM ([3]; @1000nM, read-out: %Control): 70%
remaining binding at 1 µM ([3]; read-out: %Control @1000nM): 70%
difference in %Control from compound Ib at 1 µM ([4]; @1000nM): 6%
remaining binding at 1 µM ([4]; @1000nM, read-out: %Control): 83%
remaining binding at 1 µM ([4]; read-out: %Control @1000nM): 83%
difference in %Control versus compound Ib at 1 µM ([5]; @1000nM): 25%
remaining binding at 1 µM ([5]; @1000nM, read-out: %Control): 100%
remaining binding at 1 µM ([5]; read-out: %Control @1000nM): 100%
difference in %Control vs reference Ib at 1 µM ([6]; @1000nM): 0.05%
remaining binding at 1 µM ([6]; @1000nM, read-out: %Control): 0.1%
remaining binding at 1 µM ([6]; read-out: %Control @1000nM): 0.1%
difference in % of control versus compound Ib at 1 µM ([7]; @1000nM): 81.2%
remaining binding at 1 µM ([7]; @1000nM, read-out: %Control): 82%
remaining binding at 1 µM ([7]; read-out: %Control @1000nM): 82%
% of control difference from compound Ib at 1 µM ([8]; @1000nM): 0%
remaining binding at 1 µM ([8]; @1000nM, read-out: %Control): 0%
remaining binding at 1 µM ([8]; read-out: %Control @1000nM): 0%
difference in %Control vs compound Ib at 1 µM ([9]; @1000nM): 46%
remaining binding at 1 µM ([9]; @1000nM, read-out: %Control): 85%
remaining binding at 1 µM ([9]; read-out: %Control @1000nM): 85%
difference in %Control versus compound Ib at 1 µM ([10]; @1000nM): 38.7%
remaining binding at 1 µM ([10]; @1000nM, read-out: %Control): 48%
remaining binding at 1 µM ([10]; read-out: %Control @1000nM): 48%
difference in % of control versus compound Ib at 1 µM ([11]; @1000nM): 7.4%
remaining binding at 1 µM ([11]; @1000nM, read-out: %Control): 17%
remaining binding at 1 µM ([11]; read-out: %Control @1000nM): 17%
remaining binding at 1 µM ([12]; @1000nM, read-out: %Control): 84%
remaining binding at 1 µM ([12]; read-out: %Control @1000nM): 84%
remaining binding at 1 µM ([13]; @1000nM, read-out: %Control): 90%
remaining binding at 1 µM ([13]; read-out: %Control @1000nM): 90%
remaining binding at 1 µM ([14]; @1000nM, read-out: %Control): 53%
remaining binding at 1 µM ([14]; read-out: %Control @1000nM): 53%
remaining binding at 1 µM ([15]; @1000nM, read-out: %Control): 90%
remaining binding at 1 µM ([15]; read-out: %Control @1000nM): 90%
IC50 [17]: 8 ± 9 nM
NanoBRET IC50 ([17]; HEK293 cells, 1 h treatment): low to subnanomolar
Structure (SMILES): Cc1cnc(S(C)(=O)=O)nc1N1CCCC(n2nc(-c3ccc(Oc4ccccc4)cc3)c3c(N)ncnc32)C1 (stereo not drawn) [Compound 8a, 1-(1-(5-Methyl-2-(methylsulfonyl)pyrimidin-4-yl)piperidin-3-yl)-3-(4-phenoxyphenyl)-1H-pyrazolo[3,4-d]pyrimidin-4-amine]
number of genes unchanged vs DMSO [16]: 14761 genes
number of genes reduced vs DMSO [16]: 189 genes
number of genes increased vs DMSO [16]: 97 genes
